Results on nine molecules are retold here after patent publication US20240409573A1, “CALICHEAMICIN DERIVATIVES AND ANTIBODY DRUG CONJUGATES THEREOF” (priority 2017, published 2024).

Assay [1] relates to N87 (gastric cancer) cells, Her2-target expressing. Briefly: In vitro cell assay, cell viability by MTS, N87. The assay is classed as cell-based. Conditions: 96 h, read-out: Average IC50, N87. Here is the method: (§1) Her2-Target expressing (BT474 (breast cancer), N87 (gastric cancer), MDA-MB-361-DYT2 (breast cancer)) or Her2-non-expressing (MDA-MB-468, HT29) cells, or 0033-target expressing HL60, HEL92.1.7, NB4, TF-1 or 0033-non-expressing (Raji) cells were seeded in 96-well cell culture plates for 24 hours before treatment. Cells were treated with 3-fold serially diluted antibody-drug conjugates or free compounds (i.e., no antibody conjugated to the drug) in duplicate at 10 concentrations. Cell viability was determined by CellTiter 96® AQueous One Solution Cell Proliferation MTS Assay (Promega, Madison WI) 96 hours after treatment. Relative cell viability was determined as percentage of untreated control. IC50 values were calculated using a four parameter logistic model #203 with XLfit v4.2 (IDBS, Guildford, Surry, UK). Results are shown below in Table 3 (for payloads), Table 4 (for Herceptin conjugates), and Table 5 (for CD33 conjugates).

Assay [2] has as its system MDA-MB-361-DYT2 (breast cancer) cells, Her2-target expressing. Briefly: In vitro cell assay, cell viability by MTS, MDA-MB-361-DYT2. The assay is classed as cell-based. As to conditions: 96 h, read-out: Average IC50, MDA-MB-361-DYT2. Here is the method:
as §1

Assay [3] relates to HT29 cells, Her2-non-expressing. Briefly: In vitro cell assay, cell viability by MTS, HT29. The assay is classed as cell-based. Conditions: Homo sapiens, HT-29, 96 h, read-out: Average IC50, HT29. Here is the method:
as §1

The subject of assay [4] is HL60 cells, CD33-target expressing. The assay is described as follows: In vitro cell assay, cell viability by MTS, HL60. The assay is classed as cell-based. As to conditions: Homo sapiens, HL-60, 96 h, read-out: Average IC50, HL-60. Here is the method:
as §1

Assay [5] concerns HEL92.1.7 cells, CD33-target expressing. Briefly: In vitro cell assay, cell viability by MTS, HEL92.1.7. Conditions: Homo sapiens, HEL 92.1.7, 96 h, read-out: Average IC50, HEL92.1.7. The assay is classed as cell-based. Here is the method: as §1
For assay [6], the system named is NB4 cells, CD33-target expressing. Briefly: In vitro cell assay, cell viability by MTS, NB4. The assay is classed as cell-based. Conditions: Homo sapiens, NB-4, 96 h, read-out: Average IC50, NB4. Here is the method: as §1
Assay [7] deals with TF-1 cells, CD33-target expressing. The assay is described as follows: In vitro cell assay, cell viability by MTS, TF-1. The assay is classed as cell-based. Conditions: Homo sapiens, TF-1, 96 h, read-out: Average IC50, TF-1. Here is the method: as §1
Assay [8] deals with Raji cells, CD33-non-expressing. Briefly: In vitro cell assay, cell viability by MTS, Raji. The assay is classed as cell-based. As to conditions: Homo sapiens, 96 h, read-out: Average IC50, Raji. Here is the method:
as §1

The subject of assay [9] is TF-1 AML xenograft tumors. Briefly: TF-1 AML subcutaneous xenograft model. The assay is classed as in vivo, female Athymic nu/nu mice. As to conditions: Mylotarg dosed at 1 mg/kg Q4dx4 intravenously. Here is the method: The cyno-human chimeric anti 0033 antibody, 11A1, was conjugated to various linker-payloads (as per 0033 conjugates in Examples 50-110) and tested in Acute Myeloid Leukemia (AML) xenograft models. For each model described below the first dose was given on Day 0. The tumors were measured at least once a week and their volume was calculated with the formula: tumor volume (mm^3)=0.5×(tumor width^2)(tumor length). The mean tumor volumes (±S.E.M.) for each treatment group were calculated having a maximum of 10 animals and a minimum of 4 animals to be included. All animal experiments were conducted in a facility accredited by the Association for Assessment of Laboratory Animal Care under Institutional Animal Care and Use Committee guidelines and appropriate animal research approval.
The effects of anti-CD33 ADCs were examined in immunodeficient mice on the in vivo growth of human tumors. For subcutaneous (sc) AML models, 10×10^6 TF-1 cells were implanted subcutaneously in the flank of female Athymic nu/nu mice. When the tumors reached an average volume of 300 mm^3, animals were staged to ensure uniformity of the tumor size among various treatment groups. The TF-1 AML sc xenograft model was dosed intravenously one time every four days for four cycles (Q4dx4) with PBS vehicle or humanized anti-CD33 […] at the doses provided in Tables 11-13.

As for `CCN[C@H]1CO[C@@H](O[C@H]2[C@H](O[C@H]3C#C/C=C\C#C[C@]4(O)CC(=O)C(NC(=O)OC)=C3/C4=C\CSSc3ccccn3)O[C@H](C)[C@@H](NO[C@H]3C[C@H](O)[C@H](SC(=O)c4c(C)c(I)c(O[C@@H]5O[C@@H](C)[C@H](O)[C@@H](OC)[C@H]5O)c(OC)c4OC)[C@@H](C)O3)[C@@H]2O)C[C@@H]1OC` [Example P4], the IC50 in [1] came out at 0.086 nM; in [2], 0.033 nM; in assay [3], 0.094 nM; in [4], 0.017 nM; in assay [5], 0.036 nM; in assay [6], 0.011 nM. The IC50 in assay [7] was 0.184 nM; in assay [8], 0.056 nM.
With `CCN[C@H]1CO[C@@H](O[C@H]2[C@H](O[C@H]3C#C/C=C\C#C[C@]4(O)CC(=O)C(NC(=O)OC)=C3/C4=C\CSSC(C)(C)CC(=O)NN)O[C@H](C)[C@@H](NO[C@H]3C[C@H](O)[C@H](SC(=O)c4c(C)c(I)c(O[C@@H]5O[C@@H](C)[C@H](O)[C@@H](OC)[C@H]5O)c(OC)c4OC)[C@@H](C)O3)[C@@H]2O)C[C@@H]1OC` [Example P7], the IC50 in [1] came to 0.046 nM; in assay [2] it was 1.03 nM; in [3], 0.075 nM; in assay [4] it was 0.124 nM; in assay [5], 1.22 nM; in [6] it was 0.152 nM. Besides, the IC50 in assay [7] was more than 90 nM; in assay [8], 0.161 nM.
For the molecule `CCN[C@H]1CO[C@@H](O[C@H]2[C@H](O[C@H]3C#C/C=C\C#C[C@]4(O)CC(=O)C(NC(=O)OC)=C3/C4=C\CSSc3ccccc3)O[C@H](C)[C@@H](NO[C@H]3C[C@H](O)[C@H](SC(=O)c4c(C)c(I)c(O[C@@H]5O[C@@H](C)[C@H](O)[C@@H](OC)[C@H]5O)c(OC)c4OC)[C@@H](C)O3)[C@@H]2O)C[C@@H]1OC` [Example P10], the IC50 in [1] stood at 0.031 nM; in [2], 0.025 nM; in [3] it was 0.03 nM; in assay [4], 0.004 nM; in assay [5], 0.004 nM; in assay [6], 0.003 nM. For the same molecule, the values for the IC50 in assay [7] and in [8] were 0.029 nM and 0.005 nM, respectively.
For `CCN[C@H]1CO[C@@H](O[C@H]2[C@H](O[C@H]3C#C/C=C\C#C[C@]4(O)CC(=O)C(NC(=O)OC)=C3/C4=C\CSSC(C)C(=O)OCC)O[C@H](C)[C@@H](NO[C@H]3C[C@H](O)[C@H](SC(=O)c4c(C)c(I)c(O[C@@H]5O[C@@H](C)[C@H](O)[C@@H](OC)[C@H]5O)c(OC)c4OC)[C@@H](C)O3)[C@@H]2O)C[C@@H]1OC` (some centres unmarked) [Example P11], the IC50 in assay [1] turned out to be 0.007 nM; in assay [2], 0.008 nM; in assay [3] it was 0.006 nM; in assay [4], 0.002 nM; in assay [5] it was 0.003 nM; in assay [6], 0.001 nM. Further, the IC50 in [7] worked out at 0.03 nM; in [8] it was 0.002 nM.
On to `CCN[C@H]1CO[C@@H](O[C@H]2[C@H](O[C@H]3C#C/C=C\C#C[C@]4(O)CC(=O)C(NC(=O)OC)=C3/C4=C\CSSC(C)(C)C(=O)O)O[C@H](C)[C@@H](NO[C@H]3C[C@H](O)[C@H](SC(=O)c4c(C)c(I)c(O[C@@H]5O[C@@H](C)[C@H](O)[C@@H](OC)[C@H]5O)c(OC)c4OC)[C@@H](C)O3)[C@@H]2O)C[C@@H]1OC` [Example P12], for which the IC50 in [1] was determined as 0.64 nM; in [2], 4.16 nM; in assay [3] it was 0.687 nM; in assay [4] it was 0.04 nM; in assay [5] it was 0.102 nM; in assay [6], 0.005 nM. Further, the values for the IC50 in [7] and in [8] were 0.245 nM and 0.033 nM, respectively.
Turning to `CCN[C@H]1CO[C@@H](O[C@H]2[C@H](O[C@H]3C#C/C=C\C#C[C@]4(O)CC(=O)C(NC(=O)OC)=C3/C4=C\CSSc3ccc(C(=O)O)cc3)O[C@H](C)[C@@H](NO[C@H]3C[C@H](O)[C@H](SC(=O)c4c(C)c(I)c(O[C@@H]5O[C@@H](C)[C@H](O)[C@@H](OC)[C@H]5O)c(OC)c4OC)[C@@H](C)O3)[C@@H]2O)C[C@@H]1OC` [Example P13], the IC50 is 0.536 nM in [1]; 0.982 nM in assay [2]; 0.792 nM in assay [3]; 0.044 nM in [4]; 0.039 nM in assay [5]; 0.023 nM in assay [6]. Moreover, the IC50 was found to be 0.331 nM in assay [7] and 0.022 nM in assay [8].
Consider `CCN[C@H]1CO[C@@H](O[C@H]2[C@H](O[C@H]3C#C/C=C\C#C[C@]4(O)CC(=O)C(NC(=O)OC)=C3/C4=C\CSSC3CCNCC3)O[C@H](C)[C@@H](NO[C@H]3C[C@H](O)[C@H](SC(=O)c4c(C)c(I)c(O[C@@H]5O[C@@H](C)[C@H](O)[C@@H](OC)[C@H]5O)c(OC)c4OC)[C@@H](C)O3)[C@@H]2O)C[C@@H]1OC` [Example P16], for which the IC50 was 0.023 nM in assay [1]; 0.045 nM in assay [2]; 0.035 nM in [3]; 0.024 nM in [4]; 0.071 nM in assay [5]; 0.015 nM in assay [6]. Further, the IC50 turned out to be 0.15 nM in assay [7] and 0.077 nM in assay [8].
Regarding `CCN(CC(=O)O)[C@H]1CO[C@@H](O[C@H]2[C@H](O[C@H]3C#C/C=C\C#C[C@]4(O)CC(=O)C(NC(=O)OC)=C3/C4=C\CSSC(C)C)O[C@H](C)[C@@H](NO[C@H]3C[C@H](O)[C@H](SC(=O)c4c(C)c(I)c(O[C@@H]5O[C@@H](C)[C@H](O)[C@@H](OC)[C@H]5O)c(OC)c4OC)[C@@H](C)O3)[C@@H]2O)C[C@@H]1OC` [Example P50], the IC50 was 1.05 nM in [1]; 7.33 nM in assay [2]; 0.775 nM in assay [3]; 0.372 nM in [4]; 3.93 nM in [5]; 0.127 nM in assay [6]. For the same molecule, the results for the IC50 in assay [7] and in assay [8] were 17.9 nM and 0.438 nM, respectively.
For “Mylotarg®: "anti-CD33 humanized monoclonal antibody conjugated to calicheamicin for the treatment of acute myelogenous leukemia"”, the “efficacy in TF-1 AML xenografts” value in assay [9] is “ineffective”.

One may read the IC50 as the concentration that gives 50% inhibition.
